Assay results taken from ChEMBL document CHEMBL1921729, “A small nonrule of 3 compatible fragment library provides high hit rate of endothiapepsin crystal structures with various fragment chemotypes” (J Med Chem, 2011).

Tests used:
[1] = target: T1, Endothiapepsin (Cryphonectria parasitica) (UniProt P11838); test: Inhibition of Cryphonectria parasitica endothiapepsin using Abz-Thr-Ile-Nle-p-nitro-Phe-Gln-Arg-NH2 as substrate at 1 mM by fluorescence spectrophotometry analysis
T1 sequence (whole entry): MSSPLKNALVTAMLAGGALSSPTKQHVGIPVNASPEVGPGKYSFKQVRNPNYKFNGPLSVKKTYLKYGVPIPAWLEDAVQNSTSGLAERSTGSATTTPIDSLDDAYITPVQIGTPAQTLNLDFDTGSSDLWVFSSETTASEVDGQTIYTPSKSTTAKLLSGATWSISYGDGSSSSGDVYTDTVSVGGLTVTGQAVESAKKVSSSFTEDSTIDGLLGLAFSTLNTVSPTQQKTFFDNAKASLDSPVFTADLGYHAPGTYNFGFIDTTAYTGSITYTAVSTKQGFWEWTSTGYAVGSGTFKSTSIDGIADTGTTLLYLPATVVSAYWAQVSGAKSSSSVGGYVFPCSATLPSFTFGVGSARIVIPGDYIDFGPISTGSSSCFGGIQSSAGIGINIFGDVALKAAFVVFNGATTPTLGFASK

[2] = Solubility of the compound in aqueous buffer at pH 7.4 by UV spectrophotometry; assay type: physicochemical

Compound | inhibition [1] | solubility [2]
CCN(CC)c1ccc(C(=O)NN)cc1 | 89% | > 1500 µM
N=C(N)SCc1ccc(Cl)cc1 | 84% | > 1500 µM
O=C(Cc1cn2ccccc2n1)Nc1ccccc1 | 84% | > 1500 µM
N=C(N)SCc1ccccc1Cl | 93% | > 1500 µM
NC1=NCc2ccccc21 | 89% | > 1500 µM
c1cc(CNc2ccc3c(c2)OCCO3)ccn1 | 50% | > 1500 µM
CNCc1ccc(Oc2cccnc2)o1 | 66% | > 1500 µM
O=C(Cc1ccccc1)Nn1cnc2ccccc21 | 51% | > 1500 µM
N=C(N)c1ccc(C(F)(F)F)cc1 | 45% | > 1500 µM
OC(COCc1ccccc1F)CN1CCCC1 (configuration not stated) | 87% | > 1500 µM
O=C(CN1CCCCC1)Nc1ccc2c(c1)OCO2 | 49% | > 1500 µM
